The text below walks through data of BindingDB's records for doi:10.1021/jm00376a004 (1984).

Structures are written as SMILES.

This assay is described as follows: Compound was evaluated for average apparent binding constant (Kd ) using Scatchard analysis to dTMP synthetase enzyme from chick embryo.

Take `O=c1nc(NO)ccn1[C@H]1C[C@H](O)[C@@H](COP(=O)(O)O)O1` [Phosphoric acid mono-[3-hydroxy-5-(4-hydroxyamino-2-oxo-2H-pyrimidin-1-yl)-tetrahydro-furan-2-ylmethyl] ester]: the Kd was 1000 nM.
